Holding throughout (assay type): in vivo
For assay [1], the system named is Anthonomus grandis. Description: Spray test on young cotton plants, action against Anthonomus grandis adults. To be noted: spray 100, 50, 10, 5, 1 ppm, evaluation 3 to 10 days. The source says: Young transgenic cotton plants which express the δ-endotoxin CryIIIA are sprayed with an aqueous emulsion spray mixture comprising 100, 50, 10, 5, 1 ppm of imidacloprid respectively. After the spray coating has dried on, the cotton plants are populated with 10 adult Anthonomus grandis, 10 Spodoptera littoralis larvae or 10 Heliothis virescens larvae respectively and introduced into a plastic container. Evaluation takes place 3 to 10 days later.
Young transgenic cotton plants which express the δ-endotoxin CryIIIA are sprayed with an aqueous emulsion spray mixture comprising 100, 50, 10, 5, 1 ppm of thiamethoxam respectively. After the spray coating has dried on, the cotton plants are populated with 10 adult Anthonomus grandis, 10 Spodoptera littoralis larvae or 10 Heliothis virescens larvae respectively and introduced into a plastic container. Evaluation takes place 3 to 10 days later.
Young transgenic cotton plants which express the δ-endotoxin CryIIIA are sprayed with an aqueous emulsion spray mixture comprising 100, 50, 10, 5, 1 ppm of Ti-435 respectively. After the spray coating has dried on, the cotton plants are populated with 10 adult Anthonomus grandis, 10 Spodoptera littoralis larvae or 10 Heliothis virescens larvae respectively and introduced into a plastic container. Evaluation takes place 3 to 10 days later.
Young transgenic cotton plants which express the δ-endotoxin CryIa(c) are sprayed with an aqueous emulsion spray mixture comprising 100, 50, 10, 5, 1 ppm of Ti-435 respectively. After the spray coating has dried on, the cotton plants are populated with 10 adult Anthonomus grandis, 10 Spodoptera littoralis larvae or 10 Heliothis virescens larvae respectively and introduced into a plastic container. Evaluation takes place 3 to 10 days later.
Young transgenic cotton plants which express the δ-endotoxin CryIa(c) are sprayed with an aqueous emulsion spray mixture comprising 100, 50, 10, 5, 1 ppm of thiamethoxam respectively. After the spray coating has dried on, the cotton plants are populated with 10 adult Anthonomus grandis, 10 Spodoptera littoralis larvae or 10 Heliothis virescens larvae respectively and introduced into a plastic container. Evaluation takes place 3 to 10 days later.
Young transgenic cotton plants which express the δ-endotoxin CryIa(c) are sprayed with an aqueous emulsion spray mixture comprising 100, 50, 10, 5, 1 ppm of imidacloprid respectively. After the spray coating has dried on, the cotton plants are populated with 10 adult Anthonomus grandis, 10 Spodoptera littoralis larvae or 10 Heliothis virescens larvae respectively and introduced into a plastic container. Evaluation takes place 3 to 10 days later.

Assay [2] relates to Nephotettix cincticeps. As to the kind of experiment: Rice plant pot test, action against Nephotettix cincticeps (systemic). As to conditions: 6 days; for control (percentage reduction in population, % action): placed in aqueous emulsion with 400 ppm compound; for control level: pot (B) conventional rice plants. As to the method: Rice plants expressing the δ-endotoxin CryIa(b) are planted in a in pot (A) and conventional ice plants are planted in a pot (B). Pot (A) is placed in an aqueous emulsion containing 400 ppm thiamethoxam, whereas plot (B) is placed in a pot containing 400 ppm thiamethoxam and 400 ppm of the δ-endotoxin CryI(b). The plants are subsequently infected with Nephotettix cincticeps larvae of the second and third stage. The test is evaluated after 6 days.
The percentage reduction in population (% action) is determined by comparing the number of dead pests on the plants of pot (A) with that on the plants of pot (B).
Rice plants expressing the δ-endotoxin CryIa(c) are planted in a in pot (A) and conventional ice plants are planted in a pot (B). Pot (A) is placed in an aqueous emulsion containing 400 ppm thiamethoxam, whereas plot (B) is placed in a pot containing 400 ppm thiamethoxam and 400 ppm of the δ-endotoxin CryI(c). The plants are subsequently infected with Nephotettix cincticeps larvae of the second and third stage. The test is evaluated after 6 days.

The test system of assay [3] is Nephotettix cincticeps. As to the kind of experiment: Rice plant spray test, action against Nephotettix cincticeps. To be noted: 20° C, 21 days; for control (percentage reduction in population, % action): spray 400 ppm, 2nd and 3rd stages; for control level: plot (b) conventional rice plants, 400 ppm compound. Here is the method:
Rice plants on a plot (a) expressing the δ-endotoxin CryIA(b) and conventional rice plants on a plot (b) are sprayed with a spray mixture comprising 400 ppm thiamethoxam. Immediately afterwards, plot (b) is treated with an emulsion spray mixture comprising 400 ppm of the δ-endotoxin CryIA(b). After the spray coating has dried on, the plants are infected with Nephotettix cincticeps of the 2nd and 3rd stages. The seedlings of plot (a) and (b) are then incubated at 20° C. The test is evaluated after 21 days.
(§1) The percentage reduction in population (% action) is determined by comparing the number of dead pests on the plants of plot (a) with that on the plants of plot (b).
Rice plants on a plot (a) expressing the δ-endotoxin CryIA(c) and conventional rice plants on a plot (b) are sprayed with a spray mixture comprising 400 ppm thiamethoxam. Immediately afterwards, plot (b) is treated with an emulsion spray mixture comprising 400 ppm of the δ-endotoxin CryIA(c). After the spray coating has dried on, the plants are infected with Nephotettix cincticeps of the 2nd and 3rd stages. The seedlings of plot (a) and (b) are then incubated at 20° C. The test is evaluated after 21 days.

For assay [4], the system named is Heliothis virescens. As to the kind of experiment: Spray test on young cotton plants, action against Heliothis virescens larvae. To be noted: non-transgenic cotton treated with compound and conventional CryIIIA-toxin, each 100, 50, 10, 5, 1 ppm.
In assay [5] the test system is Frankliniella occidentalis. Description: Cotton seedling spray test, action against Frankliniella occidentalis. As to conditions: 20° C, 3 and 6 days; for control (percentage reduction in population, % action): spray 400 ppm; for control level: plot (b) conventional cotton seedlings, 400 ppm compound. As to the method: Cotton seedlings expressing the δ-endotoxin CryIIIa on a plot (a) and conventional cotton seedlings on a plot (b) are infected with Frankliniella occidentalis and subsequently sprayed with a spray mixture comprising 400 ppm thiamethoxam. Immediately afterwards, plot (b) is treated with an emulsion spray mixture comprising 400 ppm of the δ-endotoxin CryIIIa. The seedlings of plot (a) and (b) are then incubated at 20° C. The test is evaluated after 3 and 6 days.
as §1
Cotton seedlings expressing the δ-endotoxin CryIa(c) on a plot (a) and conventional cotton seedlings on a plot (b) are infected with Frankliniella occidentalis and subsequently sprayed with a spray mixture comprising 400 ppm thiamethoxam. Immediately afterwards, plot (b) is treated with an emulsion spray mixture comprising 400 ppm of the δ-endotoxin CryIa(c). The seedlings of plot (a) and (b) are then incubated at 20° C. The test is evaluated after 3 and 6 days.

Bounds are passed on as bounds.

As for `CN1COCN(Cc2cnc(Cl)s2)/C1=N\[N+](=O)[O-]` [thiamethoxam, 5-(2-Chlorthiazol-5-ylmethyl)-3-methyl-4-nitroimino-perhydro-1,3,5-oxadiazin], the “control of the tested insects (percentage reduction in population or feeding damage, % action)” value is reported as “superior” in assay [1] (transgenic cotton expressing δ-endotoxin CryIIIA, compared with non-transgenic plant); “superior” in assay [1] (transgenic cotton expressing δ-endotoxin CryIa(c)); “insufficient” in assay [4] (comparison arm for CryIIIA cotton); “insufficient” in assay [4] (comparison arm for CryIa(c) cotton). Also, the “control (percentage reduction in population, % action)” value in assay [2] (pot (A) rice plants expressing δ-endotoxin CryIa(b)), in assay [2] (pot (A) rice plants expressing δ-endotoxin CryIa(c)), in assay [3] (plot (a) rice plants expressing δ-endotoxin CryIA(b)), in assay [3] (plot (a) rice plants expressing δ-endotoxin CryIA(c)), in assay [5] (plot (a) cotton seedlings expressing δ-endotoxin CryIIIa) and in assay [5] (plot (a) cotton seedlings expressing δ-endotoxin CryIa(c)) was “Improved control” each time. The control level is on record as at most 60% in assay [2] (400 ppm compound and 400 ppm δ-endotoxin CryI(b)); at most 60% in assay [2] (400 ppm compound and 400 ppm δ-endotoxin CryI(c)); at most 60% in assay [3] (then 400 ppm δ-endotoxin CryIA(b)); at most 60% in assay [3] (then 400 ppm δ-endotoxin CryIA(c)); at most 60% in assay [5] (then 400 ppm δ-endotoxin CryIIIa); at most 60% in assay [5] (then 400 ppm δ-endotoxin CryIa(c)).

For the origin of these results see patent publication US8399378B2, “Use of neonicotinoids in pest control” (Syngenta Crop Protection LLC, priority 1998, dated 2013).
